Assay results as given in PubChem BioAssay (NCI).
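Five compound concentrations were applied to cells in 96-well plates for 48 hours; endpoints were derived by simple linear interpolation of the resulting dose-response curve. Abbreviation: GI50, concentration required for 50% inhibition of growth. The concentration for full growth arrest is given as TGI.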

How the values were obtained:
Experiment in all cases: NCI tumour cell line growth inhibition, 48 h
MOLT-4 leukemia = tested on: MOLT-4 leukemia
NCI-H226 lung = tested on: NCI-H226 lung
NCI-H23 lung = tested on: NCI-H23 lung
NCI-H460 lung = tested on: NCI-H460 lung
NCI-H522 lung = tested on: NCI-H522 lung
OVCAR-3 ovarian = tested on: OVCAR-3 ovarian
OVCAR-4 ovarian = tested on: OVCAR-4 ovarian
OVCAR-5 ovarian = tested on: OVCAR-5 ovarian
OVCAR-8 ovarian = tested on: OVCAR-8 ovarian
PC-3 prostate = tested on: PC-3 prostate
RXF 393 renal = tested on: RXF 393 renal
SF-268 CNS = tested on: SF-268 CNS
SF-295 CNS = tested on: SF-295 CNS
SF-539 CNS = tested on: SF-539 CNS
SK-MEL-2 melanoma = tested on: SK-MEL-2 melanoma
SK-MEL-28 melanoma = tested on: SK-MEL-28 melanoma
SK-MEL-5 melanoma = tested on: SK-MEL-5 melanoma
SK-OV-3 ovarian = tested on: SK-OV-3 ovarian
SN12C renal = tested on: SN12C renal
SNB-19 CNS = tested on: SNB-19 CNS
SNB-75 CNS = tested on: SNB-75 CNS
SR leukemia = tested on: SR leukemia
SW-620 colon = tested on: SW-620 colon
TK-10 renal = tested on: TK-10 renal
U251 CNS = tested on: U251 CNS
UACC-257 melanoma = tested on: UACC-257 melanoma
UACC-62 melanoma = tested on: UACC-62 melanoma
UO-31 renal = tested on: UO-31 renal

With `CC(C)(C)Nc1nc2cc(Cl)c(Cl)cc2nc1S(C)(=O)=O` the TGI (MOLT-4 leukemia) was 1.97 µM, the GI50 (NCI-H226 lung) was 11.4 µM and the TGI (NCI-H226 lung) was 41.7 µM. It also gave a GI50 (NCI-H23 lung) of 2.09 µM, a TGI (NCI-H23 lung) of 5.07 µM and a GI50 (NCI-H460 lung) of 8.46 µM. For the same compound, the TGI (NCI-H460 lung) was 22.8 µM, the GI50 (NCI-H522 lung) was 1.2 µM and the TGI (NCI-H522 lung) was 2.63 µM. It also gave a GI50 (OVCAR-3 ovarian) of 1.89 µM, a TGI (OVCAR-3 ovarian) of 3.52 µM and a GI50 (OVCAR-4 ovarian) of 2.96 µM. It also gave a TGI (OVCAR-4 ovarian) of 9.57 µM, a GI50 (OVCAR-5 ovarian) of 14.6 µM and a TGI (OVCAR-5 ovarian) of 28.4 µM. The GI50 (OVCAR-8 ovarian) was 3.95 µM, the TGI (OVCAR-8 ovarian) was 19.6 µM and the GI50 (PC-3 prostate) was 8.63 µM. The TGI (PC-3 prostate) was 24.6 µM, the GI50 (RXF 393 renal) was 1.77 µM and the TGI (RXF 393 renal) was 3.64 µM. It also gave a GI50 (SF-268 CNS) of 15.9 µM, a TGI (SF-268 CNS) of 36.4 µM and a GI50 (SF-295 CNS) of 14.6 µM. For the same compound, the TGI (SF-295 CNS) was 28.1 µM, the GI50 (SF-539 CNS) was 6.38 µM and the TGI (SF-539 CNS) was 19.3 µM. The GI50 (SK-MEL-2 melanoma) was 4.14 µM, the TGI (SK-MEL-2 melanoma) was 16.1 µM and the GI50 (SK-MEL-28 melanoma) was 1.79 µM. It also gave a TGI (SK-MEL-28 melanoma) of 3.33 µM, a GI50 (SK-MEL-5 melanoma) of 2.18 µM and a TGI (SK-MEL-5 melanoma) of 5.77 µM. The GI50 (SK-OV-3 ovarian) was 13.3 µM, the TGI (SK-OV-3 ovarian) was 26.4 µM and the GI50 (SN12C renal) was 3.74 µM. The TGI (SN12C renal) was 14.4 µM, the GI50 (SNB-19 CNS) was 13.8 µM and the TGI (SNB-19 CNS) was 26.9 µM. It also gave a GI50 (SNB-75 CNS) of 8.16 µM, a TGI (SNB-75 CNS) of 24.4 µM and a GI50 (SR leukemia) of 0.504 µM. For the same compound, the TGI (SR leukemia) was 2.74 µM, the GI50 (SW-620 colon) was 1.48 µM and the TGI (SW-620 colon) was 2.96 µM. For the same compound, the GI50 (TK-10 renal) was 1.7 µM, the TGI (TK-10 renal) was 3.19 µM and the GI50 (U251 CNS) was 11.1 µM. For the same compound, the TGI (U251 CNS) was 24.5 µM, the GI50 (UACC-257 melanoma) was 1.99 µM and the TGI (UACC-257 melanoma) was 4.28 µM. The GI50 (UACC-62 melanoma) was 6.98 µM, the TGI (UACC-62 melanoma) was 19.8 µM and the GI50 (UO-31 renal) was 1.58 µM. The TGI (UO-31 renal) was 2.95 µM.
